Assay results taken from patent publication US20220249535A1, “COMPOSITIONS COMPRISING NICOTINAMIDE ADENINE DINUCLEOTIDE-RELATED COMPOUNDS AND USE THEREOF” (Rejuvenation Therapeutics, priority 2019, published 2022).

Assays:
[1] = tested on: NAD+ levels in the blood; assay: Blood NAD+ level in subjects during daily oral dosing (Example 1); assay type: in vivo, human
[2] = murine plasma or fetal-bovine-serum containing culture medium; cited from earlier work
[3] = after NMN supplementation; through the liver and bloodstream intact into muscle; cited from earlier work
[4] = compared with NAM; cited from earlier work

Compound | NAD+ level in response to intake ([1]; 300 mg daily for 14 days) | NAD+ level in response to intake ([1]; 1000 mg daily for 7 days) | other results
O=C(O)c1cccnc1 [NA, nicotinic acid] | increasing NAD+ levels |  | 
NC(=O)c1ccc[n+]([C@@H]2O[C@H](CO)[C@@H](O)[C@H]2O)c1 [NR, nicotinamide riboside] | increasing NAD+ level | increasing NAD+ levels | Stability [2]: can quickly degrade into NAM
NC(=O)c1cccnc1 [NAM, nicotinamide] |  |  | NAD+ level in response to intake ([1]; 1000 mg daily for 14 days): increasing NAD+ levels
Nicotinamide adenine dinucleotide [NAD+] |  | increasing NAD+ level | NAD+ level in response to intake ([1]; 1000 mg daily for 7 days, listed as NAD): increasing NAD+ levels
NC(=O)c1ccc[n+]([C@@H]2O[C@H](COP(=O)([O-])O)[C@@H](O)[C@H]2O)c1 [NMN, nicotinamide mononucleotide] |  | increasing NAD+ levels | Time to metabolism to NAD+ [3]: ≤ 30 min; Retention in the body [4]: retained in the body for longer than NAM
